Assay results published in patent publication US20070015742A1, “Porphyrin derivatives” (priority 2003, published 2007).
Where two headings read alike, the source gives them in different places.

Experiments:
[1] = in toluene, reference standard whose quantum yield is known; cited from earlier work
[2] = tested on: mouse colon adenocarcinoma cell line Colo26; conditions: colo26 cells; for cell kill on irradiation: irradiation with 100 J cm^-2 white light; for photodynamic activity: 100 J cm^-2 white light
Method: Evaluation of in vitro Photodvnamic Tumour Cell Kill
The non-metastasing mouse colon adenocarcinoma cell line Colo26 was maintained in monolayer culture in RPMI 1640 glutamax medium supplemented with 10% heat-inactivated foetal calf serum, 100 U ml^−1 penicillin and 100 mg ml^−1 streptomycin. Cells grown to confluence were separated by trypsinisation to produce a suspension of 1.39 million cells per ml. A sample of 2.16 ml of this cell suspension was diluted to 50 ml with CM10 medium to give suspensions of 60,000 cells per ml. 100 μl of this suspension containing 6000 cells was added to each of the 60 inner wells of two 96-well culture plates. The outer wells of each plate were filled with sterile water. This was done to avoid errors resulting from the loss by evaporation of the rather small volumes of cell culture medium. The cells were incubated at 37° C. and 5% CO2 in a humidified incubator for 24 hours. A further 100 μl of cell culture medium containing a range of concentrations of each photosensitiser and tetrahydoflran (THF) vehicle was then added to groups of six wells. Tetrahydrofuran was chosen as solvent because it is relatively freely miscible with water and a pilot experiment had shown that incubation of cells for 48 hours with 0.5-1% THF had no effect on cell growth. An initial stock solution of 200 μl of each photosensitiser in THF was prepared and this solution used to prepare a series of sub-stock solutions in cell culture medium CM10 for addition to the tumour cell cultures.
After 20 hours of incubation with the cells, the medium containing the sensitiser and vehicle was removed and the cells washed once with buffer solution at 37° C. before the addition of fresh cell culture medium without photosensitiser or vrhicle. One of the two cell culture plates was then protected from light with aluminium foil and placed alongside the other plate which was irradiated with 100 joules cm^−2 of full-spectrum white light from an Applied Photophysics Irradiator. The light was delivered to the base of the 96-well plate through a glass platform (which served to filter short-wavelength ultraviolet light) as a 20 cm diameter spot. After irradiation both plates were returned to the incubator for a further 18 hours.
Cell growth inhibition following incubation with each photosensitiser and irradiation was determined using the European Union approved Neutral Red photocyiotoxicity protocol (Annexe II to Directive 2000/33/EC) adapted for visible light irradiation and the use of colo26 cells.

[3] = molar extinction spectrum in THF; format: physicochemical
Excerpt: The absorbance peaks and molar extinction coefficients are shown below in Table 2.
The Absorbance peaks and molar extinction coefficients are shown below in Table 3.
The absorbance peaks and molar extinction coefficients are shown below in Table 4.

[4] = concentrations of 0.5 μM and above

Row | SMILES | singlet oxygen quantum yield of reference [1] | cell kill on irradiation ([2]; 2 μM and above) | photodynamic activity [2] | cell kill on irradiation [2, 4] | molar extinction coefficient ε ([3]; peak wavelength 418, THF) | molar extinction coefficient ε ([3]; peak wavelength 502, THF) | molar extinction coefficient ε ([3]; peak wavelength 532, THF) | molar extinction coefficient ε ([3]; peak wavelength 606, THF) | molar extinction coefficient ε ([3]; peak wavelength 668, THF) | molar extinction coefficient ε ([3]; peak wavelength 456, THF) | molar extinction coefficient ε ([3]; peak wavelength 537, THF) | molar extinction coefficient ε ([3]; peak wavelength 589, THF) | molar extinction coefficient ε ([3]; peak wavelength 659, THF) | molar extinction coefficient ε ([3]; peak wavelength 708, THF) | molar extinction coefficient ε ([3]; peak wavelength 724, THF)
1 | C=Cc1c(C)c2cc3nc(c4c5[n-]c(cc6nc(cc1[n-]2)C(C)=C6CC)c(C)c5C(=O)[C@@H]4C(=O)OC)[C@@H](CCC(=O)OC/C=C(\C)CCC[C@H](C)CCC[C@H](C)CCCC(C)C)[C@@H]3C.[Mg+2] [chlorophyll A] | 0.6 |  |  |  |  |  |  |  |  |  |  |  |  |  | 
2 | CCCCCCCCCCCCCCCCOc1ccc(C2=C3C=CC(=N3)C(c3ccccc3)=c3ccc([nH]3)=CC3=NC(=CC4=CC=C2S4)C=C3)cc1 [porphyrin (8), 5-(4-hexadecyloxyphenyl)-10-(phenyl)-15,20-H-21-thiaporphryin] |  | approaching total cell kill | photodynamic activity | substantial cell kill | 300,000 1 mol^−1 cm^−1 | 29,800 1 mol^−1 cm^−1 | 5,300 1 mol^−1 cm^−1 | 4,900 1 mol^−1 cm^−1 | 3,000 1 mol^−1 cm^−1 |  |  |  |  |  | 
3 | CCCCCCCCCCCCCCCCOc1ccc(-c2c3nc(c(-c4ccccc4)c4ccc([nH]4)c(C#Cc4ccccn4)c4nc(c(C#Cc5ccccn5)c5ccc2s5)C=C4)C=C3)cc1 [porphyrin (10), 5-(4-hexadecyloxyphenyl)-10-(phenyl)-15,20-(2-ethynylpyridine)-21-thiaporphyrin] |  | approaching total cell kill | photodynamic activity | substantial cell kill |  |  |  |  |  | 378,985 1 mol^−1 cm^−1 | 24,330 1 mol^−1 cm^−1 | 40,385 1 mol^−1 cm^−1 | 6,335 1 mol^−1 cm^−1 | 11,635 1 mol^−1 cm^−1 | 13,320 1 mol^−1 cm^−1
